Experimental data: patent publication US20160287563A1, “Cysteine Prodrugs” (Promentis Pharmaceuticals, Inc., priority 2011, published 2016)

Tests used:
[1] = Tissue glutathione in the MAM neurodevelopmental model of schizophrenia; format: in vivo; settings: rats in the MAM neurodevelopmental model (MAM 22 mg/kg IP on gestational day 17)
Procedure: (§1) This approach would have the added benefit of allowing assessing the impact of the compounds on cognitive changes that are thought to be relevant to schizophrenia. Thus, one would be able to test the hypothesis that the conditions that normalize glutathione are also conditions that are expected to improve cognitive performance.
Timed pregnant Sprauge-Dawley rats are given an acute injection of methylazoxymethanol (MAM; 22 mg/kg, IP) or vehicle on gestational day 17. Following vaginal birth, all mothers and offspring are left undisturbed until weaning on postnatal day 22.

MAM-treated rats = assay: Attentional Set Shifting in MAM-treated rats; format: in vivo
Source text: as §1
Seven days prior to testing the animals will be food deprived to 85% of their free-feeding weight. Rats will be trained and tested on a four-arm cross maze (60×20×12 inches), constructed from Plexiglas with a removable arm to form a “T” configuration. On the first habituation day, the rat will be allowed to explore and consume up to 20 sugar pellets for 15 minutes. On the second day, the maze will be baited with 12 pellets for 15 minutes. On subsequent days, only one pellet will be placed at the end of each arm. This procedure will be continued daily until the rat consumes 16 sugar pellets in 15 minutes. Once achieved, the turn bias will be determined by forming a “T” configuration with the removable arm. A black-and-white piece of laminated paper for a visual cue will be placed on the floor in one of the arms. One pellet will be placed in each food well of the “T” arms. The rat will then be placed in the stem arm and allowed to choose between the two arms. […]

cultured cells = assay: Glutathione levels in cultured cells exposed to oxidative stress agents; format: cell-based; settings: iron 0-120 min exposure to 0-100 microM; ethacrynic acid 0-30 min exposure to 0-10 microM
Source text: First, the experiment described in part 1A is repeated, except the harvested tissue is exposed to agents that induce oxidative stress which would prompt the cells to use/increase the synthesis of glutathione (the details are provided below).

Row | SMILES | tissue levels of glutathione in cultured cells (cultured cells) | further results
1 | C[N+]([O-])=NCO [MAM, methylazoxymethanol] |  | tissue levels of glutathione [1]: modest reduction in tissue levels of glutathione
2 | CC(=O)N[C@@H](CS)C(=O)O [NAC, N-acetyl cysteine] |  | Attentional Set Shifting deficit (MAM-treated rats): can be restored
3 | C=C(CC)C(=O)c1ccc(OCC(=O)O)c(Cl)c1Cl [ethacrynic acid] | decrease tissue levels of glutathione | 
4 | [Fe] [iron] | decrease tissue levels of glutathione | 
